# Reference: patent US10294202B2, “Pyrrolidinones as herbicides” (FMC Corporation, priority 2013, dated 2019)
# How the values were obtained:
# barnyardgrass [1] = assay: Test A pre-/postemergence herbicide test; assay type: in vivo, Echinochloa crus-galli; conditions: for Barnyardgrass plant response rating: Preemergence, visual rating on 0 to 100 scale (0 no effect, 100 complete control)
# In short: (§1)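 Formulated compound (non-phytotoxic solvent, surfactant) sprayed pre- onto soil of seeded loam/sand pots or post- onto seedlings at 1–2 leaves; ~10 d greenhouse; 0–100 visual control rating versus untreated.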
# crabgrass, large = assay: Test A pre-/postemergence herbicide test; assay type: in vivo, Digitaria sanguinalis; conditions: for Crabgrass, Large plant response rating: Preemergence, visual rating on 0 to 100 scale (0 no effect, 100 complete control)
# In short: as §1
# giant foxtail = assay: Test A pre-/postemergence herbicide test; assay type: in vivo, Setaria faberii; conditions: for Foxtail, Giant plant response rating: Preemergence, visual rating on 0 to 100 scale (0 no effect, 100 complete control)
# In short: as §1
# morningglory = assay: Test A pre-/postemergence herbicide test; assay type: in vivo, Ipomoea spp.; conditions: for Morningglory plant response rating: Preemergence, visual rating on 0 to 100 scale (0 no effect, 100 complete control)
# In short: as §1
# pigweed = assay: Test A pre-/postemergence herbicide test; assay type: in vivo, Amaranthus retroflexus; conditions: for Pigweed plant response rating: Preemergence, visual rating on 0 to 100 scale (0 no effect, 100 complete control)
# In short: as §1
# velvetleaf = assay: Test A pre-/postemergence herbicide test; assay type: in vivo, Abutilon theophrasti; conditions: for Velvetleaf plant response rating: Preemergence, visual rating on 0 to 100 scale (0 no effect, 100 complete control)
# In short: as §1
# wheat = assay: Test A pre-/postemergence herbicide test; assay type: in vivo, Triticum aestivum; conditions: for Wheat plant response rating: Preemergence, visual rating on 0 to 100 scale (0 no effect, 100 complete control)
# In short: as §1
# corn = assay: Test A pre-/postemergence herbicide test; assay type: in vivo, Zea mays; conditions: for Corn plant response rating: Preemergence, visual rating on 0 to 100 scale (0 no effect, 100 complete control)
# In short: as §1
# rice = assay: Test C flooded paddy test; assay type: in vivo, Oryza sativa; conditions: Flood
# In short: (§2)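 Visual ratings from 0, no effect, to 100, complete control, were made against untreated controls after 13–15 greenhouse days. Compounds had gone straight into paddy water 3 cm above the soil, kept at that depth, on 2-leaf-stage plants.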
# sedge, umbrella = assay: Test C flooded paddy test; assay type: in vivo, Cyperus difformis; conditions: Flood
# In short: as §2
# ducksalad = assay: Test C flooded paddy test; assay type: in vivo, Heteranthera limosa; conditions: Flood
# In short: as §2
# barnyardgrass [2] = assay: Test C flooded paddy test; assay type: in vivo, Echinochloa crus-galli; conditions: Flood
# In short: as §2
# [3] = Postemergence, 125 g ai/ha, 0 to 100 scale, 0 no effect, 100 complete control
# [4] = Postemergence, 500 g ai/ha, 0 to 100 scale (0 no effect, 100 complete control)
# [5] = preemergence, 500 g ai/ha, 0 to 100 scale (0 no effect, 100 complete control)
# [6] = preemergence, 500 g ai/ha, 0 to 100 scale
# [7] = 31 g ai/ha, scale of 0 to 100 where 0 is no effect and 100 is complete control, 13 to 15 days
# [8] = 62 g ai/ha, scale of 0 to 100 where 0 is no effect and 100 is complete control, 13 to 15 days
# [9] = 125 g ai/ha, scale of 0 to 100 where 0 is no effect and 100 is complete control, 13 to 15 days
# [10] = 125 g ai/ha, visual rating, 0 to 100 scale, 0 no effect, 100 complete control, approximately 10 days, preemergence
# [11] = Postemergence, 125 g ai/ha, 0 to 100 scale, 0 is no effect, 100 is complete control
# [12] = preemergence, 500 g ai/ha, 0 to 100 scale, 0 is no effect and 100 is complete control
# [13] = 250 g ai/ha, scale of 0 to 100 where 0 is no effect and 100 is complete control, 13 to 15 days
structure (smiles),measurement,setting,value
O=C1NCC(c2ccsc2)C1C(=O)Nc1ccccc1F (racemic) [Compound 29],"Plant response rating, Barnyardgrass",barnyardgrass [1]; [3],0
same,"Plant response rating, Barnyardgrass",barnyardgrass [1]; [4],0
same,Barnyardgrass plant response rating,barnyardgrass [1]; 125 g ai/ha,0
same,"Plant response rating, Barnyardgrass",barnyardgrass [1]; [5],50
same,"Plant response rating, Crabgrass, Large","crabgrass, large; [3]",0
same,"Plant response rating, Crabgrass, Large","crabgrass, large; [4]",0
same,"Crabgrass, Large plant response rating","crabgrass, large; 125 g ai/ha",30
same,"Plant response rating, Crabgrass, Large","crabgrass, large; [6]",70
same,"Plant response rating, Foxtail, Giant",giant foxtail; [3],0
same,"Plant response rating, Foxtail, Giant",giant foxtail; [4],0
same,"Foxtail, Giant plant response rating",giant foxtail; 125 g ai/ha,0
same,"Plant response rating, Foxtail, Giant",giant foxtail; [6],0
same,"Plant response rating, Morningglory",morningglory; [3],0
same,"Plant response rating, Morningglory",morningglory; [4],0
same,Morningglory plant response rating,morningglory; 125 g ai/ha,0
same,"Plant response rating, Morningglory",morningglory; [6],0
same,"Plant response rating, Pigweed",pigweed; [3],0
same,"Plant response rating, Pigweed",pigweed; [4],0
same,Pigweed plant response rating,pigweed; 125 g ai/ha,0
same,"Plant response rating, Pigweed",pigweed; [6],0
same,"Plant response rating, Velvetleaf",velvetleaf; [3],0
same,"Plant response rating, Velvetleaf",velvetleaf; [4],0
same,Velvetleaf plant response rating,velvetleaf; 125 g ai/ha,0
same,"Plant response rating, Velvetleaf",velvetleaf; [6],0
same,"Plant response rating, Wheat",wheat; [3],0
same,"Plant response rating, Wheat",wheat; [4],0
same,Wheat plant response rating,wheat; 125 g ai/ha,0
same,"Plant response rating, Wheat",wheat; [6],0
same,"Plant response rating, Corn",corn; [3],0
same,"Plant response rating, Corn",corn; [4],0
same,Corn plant response rating,corn; 125 g ai/ha,0
same,"Plant response rating, Corn",corn; [6],0
same,"Plant response rating, Rice",rice; [7],0
same,"Plant response rating, Rice",rice; [8],0
same,"Plant response rating, Rice",rice; [9],0
same,"Plant response rating, Rice","rice; 250 g ai/ha, scale 0 to 100",0
same,"Plant response rating, Sedge, Umbrella","sedge, umbrella; [7]",0
same,"Plant response rating, Sedge, Umbrella","sedge, umbrella; [8]",0
same,"Plant response rating, Sedge, Umbrella","sedge, umbrella; [9]",0
same,"Plant response rating, Sedge, Umbrella","sedge, umbrella; 250 g ai/ha, scale 0 to 100",0
same,"Plant response rating, Ducksalad",ducksalad; [7],0
same,"Plant response rating, Ducksalad",ducksalad; [8],0
same,"Plant response rating, Ducksalad",ducksalad; [9],0
same,"Plant response rating, Ducksalad","ducksalad; 250 g ai/ha, scale 0 to 100",40
same,"Plant response rating, Barnyardgrass",barnyardgrass [2]; [7],0
same,"Plant response rating, Barnyardgrass",barnyardgrass [2]; [8],0
same,"Plant response rating, Barnyardgrass",barnyardgrass [2]; [9],0
same,"Plant response rating, Barnyardgrass","barnyardgrass [2]; 250 g ai/ha, scale 0 to 100",0
O=C1NCC(c2cccc(C(F)(F)F)c2)C1C(=O)Nc1ccccc1Br (racemic) [Compound 190],"Plant response rating, Barnyardgrass",barnyardgrass [1]; [10],60
same,"Plant response rating, Barnyardgrass",barnyardgrass [1]; [11],70
same,"Barnyardgrass plant response rating (0 to 100 scale, 0 is no effect, 100 is complete control)","barnyardgrass [1]; Postemergence, 500 g ai/ha",90
same,"Plant response rating, Barnyardgrass",barnyardgrass [1]; [12],90
same,"Plant response rating, Crabgrass, Large","crabgrass, large; [10]",90
same,"Plant response rating, Crabgrass, Large","crabgrass, large; [11]",70
same,"Crabgrass, Large plant response rating (0 to 100 scale, 0 is no effect, 100 is complete control)","crabgrass, large; Postemergence, 500 g ai/ha",90
same,"Plant response rating, Crabgrass, Large","crabgrass, large; [12]",90
same,"Plant response rating, Foxtail, Giant",giant foxtail; [10],80
same,"Plant response rating, Foxtail, Giant",giant foxtail; [11],70
same,"Foxtail, Giant plant response rating (0 to 100 scale, 0 is no effect, 100 is complete control)","giant foxtail; Postemergence, 500 g ai/ha",80
same,"Plant response rating, Foxtail, Giant",giant foxtail; [12],90
same,"Plant response rating, Morningglory",morningglory; [10],0
same,"Plant response rating, Morningglory",morningglory; [11],0
same,"Morningglory plant response rating (0 to 100 scale, 0 is no effect, 100 is complete control)","morningglory; Postemergence, 500 g ai/ha",10
same,"Plant response rating, Morningglory",morningglory; [12],0
same,"Plant response rating, Pigweed",pigweed; [10],0
same,"Plant response rating, Pigweed",pigweed; [11],0
same,"Pigweed plant response rating (0 to 100 scale, 0 is no effect, 100 is complete control)","pigweed; Postemergence, 500 g ai/ha",0
same,"Plant response rating, Pigweed",pigweed; [12],0
same,"Plant response rating, Velvetleaf",velvetleaf; [10],0
same,"Plant response rating, Velvetleaf",velvetleaf; [11],0
same,"Velvetleaf plant response rating (0 to 100 scale, 0 is no effect, 100 is complete control)","velvetleaf; Postemergence, 500 g ai/ha",10
same,"Plant response rating, Velvetleaf",velvetleaf; [12],0
same,"Plant response rating, Wheat",wheat; [10],0
same,"Plant response rating, Wheat",wheat; [11],0
same,"Wheat plant response rating (0 to 100 scale, 0 is no effect, 100 is complete control)","wheat; Postemergence, 500 g ai/ha",0
same,"Plant response rating, Wheat",wheat; [12],30
same,"Plant response rating, Corn",corn; [10],0
same,"Plant response rating, Corn",corn; [11],0
same,"Corn plant response rating (0 to 100 scale, 0 is no effect, 100 is complete control)","corn; Postemergence, 500 g ai/ha",40
same,"Plant response rating, Corn",corn; [12],0
same,"Plant response rating, Rice",rice; [9],0
same,"Plant response rating, Rice",rice; [13],0
same,"Plant response rating, Rice","rice; 500 g ai/ha, scale 0 to 100",0
same,"Plant response rating, Rice","rice; 1000 g ai/ha, scale 0 to 100",15
same,"Plant response rating, Sedge, Umbrella","sedge, umbrella; [9]",0
same,"Plant response rating, Sedge, Umbrella","sedge, umbrella; [13]",0
same,"Plant response rating, Sedge, Umbrella","sedge, umbrella; 500 g ai/ha, scale 0 to 100",0
same,"Plant response rating, Sedge, Umbrella","sedge, umbrella; 1000 g ai/ha, scale 0 to 100",0
same,"Plant response rating, Ducksalad",ducksalad; [9],50
same,"Plant response rating, Ducksalad",ducksalad; [13],75
same,"Plant response rating, Ducksalad","ducksalad; 500 g ai/ha, scale 0 to 100",85
same,"Plant response rating, Ducksalad","ducksalad; 1000 g ai/ha, scale 0 to 100",100
same,"Plant response rating, Barnyardgrass",barnyardgrass [2]; [9],10
same,"Plant response rating, Barnyardgrass",barnyardgrass [2]; [13],25
same,"Plant response rating, Barnyardgrass","barnyardgrass [2]; 500 g ai/ha, scale 0 to 100",50
same,"Plant response rating, Barnyardgrass","barnyardgrass [2]; 1000 g ai/ha, scale 0 to 100",65
CC1(C)NC(=O)C(C(=O)Nc2ccccc2F)C1c1ccc(F)c(F)c1 (centres unmarked) [Compound 11],"Plant response rating, Barnyardgrass",barnyardgrass [1]; [3],0
same,"Plant response rating, Barnyardgrass",barnyardgrass [1]; [4],50
same,Barnyardgrass plant response rating,barnyardgrass [1]; 125 g ai/ha,0
same,"Plant response rating, Barnyardgrass",barnyardgrass [1]; [5],20
same,"Plant response rating, Crabgrass, Large","crabgrass, large; [3]",0
same,"Plant response rating, Crabgrass, Large","crabgrass, large; [4]",50
same,"Crabgrass, Large plant response rating","crabgrass, large; 125 g ai/ha",70
same,"Plant response rating, Crabgrass, Large","crabgrass, large; [6]",90
same,"Plant response rating, Foxtail, Giant",giant foxtail; [3],0
same,"Foxtail, Giant plant response rating",giant foxtail; 125 g ai/ha,20
same,"Plant response rating, Foxtail, Giant",giant foxtail; [6],50
same,"Plant response rating, Morningglory",morningglory; [3],0
same,"Plant response rating, Morningglory",morningglory; [4],0
same,Morningglory plant response rating,morningglory; 125 g ai/ha,0
same,"Plant response rating, Morningglory",morningglory; [6],0
same,"Plant response rating, Pigweed",pigweed; [3],0
same,"Plant response rating, Pigweed",pigweed; [4],0
same,Pigweed plant response rating,pigweed; 125 g ai/ha,0
same,"Plant response rating, Pigweed",pigweed; [6],0
same,"Plant response rating, Velvetleaf",velvetleaf; [3],0
same,"Plant response rating, Velvetleaf",velvetleaf; [4],0
same,Velvetleaf plant response rating,velvetleaf; 125 g ai/ha,0
same,"Plant response rating, Velvetleaf",velvetleaf; [6],0
same,"Plant response rating, Wheat",wheat; [3],0
same,"Plant response rating, Wheat",wheat; [4],0
same,Wheat plant response rating,wheat; 125 g ai/ha,0
same,"Plant response rating, Wheat",wheat; [6],0
same,"Plant response rating, Corn",corn; [3],0
same,"Plant response rating, Corn",corn; [4],0
same,Corn plant response rating,corn; 125 g ai/ha,0
same,"Plant response rating, Corn",corn; [6],0
same,"Plant response rating, Rice",rice; [7],0
same,"Plant response rating, Rice",rice; [8],0
same,"Plant response rating, Rice",rice; [9],0
same,"Plant response rating, Rice","rice; 250 g ai/ha, scale 0 to 100",0
same,"Plant response rating, Sedge, Umbrella","sedge, umbrella; [7]",0
same,"Plant response rating, Sedge, Umbrella","sedge, umbrella; [8]",0
same,"Plant response rating, Sedge, Umbrella","sedge, umbrella; [9]",0
same,"Plant response rating, Sedge, Umbrella","sedge, umbrella; 250 g ai/ha, scale 0 to 100",0
same,"Plant response rating, Ducksalad",ducksalad; [7],0
same,"Plant response rating, Ducksalad",ducksalad; [8],0
same,"Plant response rating, Ducksalad",ducksalad; [9],0
same,"Plant response rating, Ducksalad","ducksalad; 250 g ai/ha, scale 0 to 100",0
same,"Plant response rating, Barnyardgrass",barnyardgrass [2]; [7],0
same,"Plant response rating, Barnyardgrass",barnyardgrass [2]; [8],0
same,"Plant response rating, Barnyardgrass",barnyardgrass [2]; [9],0
same,"Plant response rating, Barnyardgrass","barnyardgrass [2]; 250 g ai/ha, scale 0 to 100",0
